Laboratory results: article PMC5769417, “Single- and Multiple-Dose Trials to Determine the Pharmacokinetics, Safety, Tolerability, and Sex Effect of Oral Ginsenoside Compound K in Healthy Chinese Volunteers” (Frontiers in Pharmacology, 2018)

Experiments:
[1] = Single-dose trial, plasma pharmacokinetics; type: in vivo, human; settings: single-dose trial, fasting
Protocol: Single-dose pharmacokinetics: The single-dose trial was performed first. […] Drinking before and after medication was prohibited for 2 h, but the amount and time of drinking were not strictly controlled at other times. All subjects had standard lunch and dinner (unified light diet) after medication 4 and 10 h. Single-dose pharmacokinetics: […] We preserved 8 ml specimens into 10 ml centrifuge tubes and stored at −70°C for PK assessment. All samples were preserved at −70°C and analyzed with a LC-MS/MS (API 4000 LC-MS/MS, ABI Company, Foster City, CA, USA) at the Institute of Clinical Pharmacology, Central South University (Changsha, China). […] An aqueous solution of a stable internal standard (IS for CK: digoxin, Shijiaoke Biological Technology Co. Ltd., Beijing, China; IS for PPD: coumarin, Sigma-Aldrich, St. Louis, USA) and 1 M phosphate buffer were added to 0.5 ml of thawed sample, and analytical standards and quality control (QC) samples were prepared in the same matrix. All samples were treated with 2 ml of methyl tert-butyl ether (MTBE, CNW technologies GmbH, Duesseldorf, Germany) to precipitate the bulk of plasma proteins. After mechanical shock by mixing for 10 min and a subsequent centrifugation (4,000 rpm, 4°C, 10 min), 1.4 ml of the supernatant was transferred and blow-dried with nitrogen in a water bath at 40°C. Lastly, the residue was dissolved in 100 μl of mobile phase and then was subjected to a mechanical shock by mixing, and centrifuged. The supernatant was subsequently injected into the column for analysis. […] Accuracy and precision of the assay were determined by evaluating the performance of the assay controls. Over the quantification range, the accuracy of the QC samples varied from 85 to 115% and the intra- and inter-assay imprecision was <15%. PK parameters were derived according to noncompartmental analysis and actual elapsed time from dosing by WinNonlin version 6.1 (Pharsight Corporation, Mountain View, CA, USA). […] The area under the curve (AUC) from time zero to the last time point (AUClast) and the AUC extrapolated to infinity (AUCinf) were calculated using the linear trapezoidal rule. The slope (elimination rate constant, K) of the terminal phase of the plasma concentration-time profile was determined, using a weighting factor of 1, by the method of least squares (log-linear regression of at least three data points). The t1/2 was estimated as (ln2)/K. […] The apparent volume of distribution (V/F) was equal to (CL/F)/K. The mean residence time (MRT) was calculated as the area under the first moments curve (AUMC) divided by AUC. The dose-normalized PK parameters e.g., Cmax/D and AUClast/D, were obtained by dividing each PK result by the administered dose. The cumulative excretion rate was calculated as the amount of unchanged drug in the urine over a time interval divided by the dose and was expressed as thousand points (‰).

[2] = Multiple-dose trial, plasma pharmacokinetics; type: in vivo, human
Protocol: Multiple-dose pharmacokinetics: […] Multiple-dose pharmacokinetics: […] All samples were preserved at −70°C and analyzed with a LC-MS/MS (API 4000 LC-MS/MS, ABI Company, Foster City, CA, USA) at the Institute of Clinical Pharmacology, Central South University (Changsha, China). […] An aqueous solution of a stable internal standard (IS for CK: digoxin, Shijiaoke Biological Technology Co. Ltd., Beijing, China; IS for PPD: coumarin, Sigma-Aldrich, St. Louis, USA) and 1 M phosphate buffer were added to 0.5 ml of thawed sample, and analytical standards and quality control (QC) samples were prepared in the same matrix. All samples were treated with 2 ml of methyl tert-butyl ether (MTBE, CNW technologies GmbH, Duesseldorf, Germany) to precipitate the bulk of plasma proteins. After mechanical shock by mixing for 10 min and a subsequent centrifugation (4,000 rpm, 4°C, 10 min), 1.4 ml of the supernatant was transferred and blow-dried with nitrogen in a water bath at 40°C. Lastly, the residue was dissolved in 100 μl of mobile phase and then was subjected to a mechanical shock by mixing, and centrifuged. The supernatant was subsequently injected into the column for analysis. […] Accuracy and precision of the assay were determined by evaluating the performance of the assay controls. Over the quantification range, the accuracy of the QC samples varied from 85 to 115% and the intra- and inter-assay imprecision was <15%. […] The area under the curve (AUC) from time zero to the last time point (AUClast) and the AUC extrapolated to infinity (AUCinf) were calculated using the linear trapezoidal rule. The slope (elimination rate constant, K) of the terminal phase of the plasma concentration-time profile was determined, using a weighting factor of 1, by the method of least squares (log-linear regression of at least three data points). The t1/2 was estimated as (ln2)/K. […] The apparent volume of distribution (V/F) was equal to (CL/F)/K. The mean residence time (MRT) was calculated as the area under the first moments curve (AUMC) divided by AUC. The dose-normalized PK parameters e.g., Cmax/D and AUClast/D, were obtained by dividing each PK result by the administered dose. The cumulative excretion rate was calculated as the amount of unchanged drug in the urine over a time interval divided by the dose and was expressed as thousand points (‰). On day 15 in the multiple-dose trial, the PK parameters, such as t1/2, CL/F, and V/F at steady state were calculated using the same method as that used for the single-dose trial. In addition, the Tmax at steady state (Tmax,ss), Cmax at steady state (Cmax,ss), and Cmin,ss were obtained from experimental observation after the steady state during the multiple-dose trial. […] The average steady-state drug concentration (Cavg) is calculated as AUCτ/τ, and the fluctuation ratio was calculated as (Cmax,ss − Cmin,ss)/Cavg. The accumulation index was calculated using dosing interval and elimination rate constant as in the following equation: 1/(1 − e^−Kτ).

[3] = 100 mg oral after breakfast, Day 1
[4] = 100 mg qd oral after breakfast, Day 15
[5] = 200 mg oral after breakfast, Day 1
[6] = 200 mg qd oral after breakfast, Day 15
[7] = 400 mg oral after breakfast, Day 1
[8] = 400 mg qd oral after breakfast, Day 15

CC(C)=CCC[C@](C)(O)[C@H]1CC[C@]2(C)[C@@H]1[C@H](O)C[C@@H]1[C@@]3(C)CC[C@H](O)C(C)(C)[C@@H]3CC[C@]12C [20(S)-PPD, 20(S)-protopanaxadiol]
AUClast ([1]; 25 mg oral): 32.4 ± 26.2 ng·h/mL | Cmax ([1]; 25 mg oral): 1.6 ± 1.2 ng/mL | Tmax, median (range) ([1]; 25 mg oral): 12.0 (8.0–24.0) h | AUClast ([1]; 50 mg oral): 43.9 ± 12.0 ng·h/mL | Cmax ([1]; 50 mg oral): 1.8 ± 0.6 ng/mL | Tmax, median (range) ([1]; 50 mg oral): 24.0 (12.0–24.0) h | AUClast ([1]; 100 mg oral): 167.6 ± 125.0 ng·h/mL | Cmax ([1]; 100 mg oral): 6.3 ± 4.2 ng/mL | Tmax, median (range) ([1]; 100 mg oral): 24.0 (12.0–36.0) h | AUClast ([1]; 200 mg oral): 117.8 ± 94.9 ng·h/mL | Cmax ([1]; 200 mg oral): 3.5 ± 2.7 ng/mL | Tmax, median (range) ([1]; 200 mg oral): 24.0 (6.0–36.0) h | AUClast ([1]; 400 mg oral): 157.1 ± 174.6 ng·h/mL | Cmax ([1]; 400 mg oral): 4.8 ± 4.3 ng/mL | Tmax, median (range) ([1]; 400 mg oral): 24.0 (5.0–48.0) h | AUClast ([1]; 600 mg oral): 269.8 ± 251.4 ng·h/mL | Cmax ([1]; 600 mg oral): 9.5 ± 9.8 ng/mL | Tmax, median (range) ([1]; 600 mg oral): 36.0 (24.0–72.0) h | AUClast ([1]; 800 mg oral): 179.1 ± 171.0 ng·h/mL | Cmax ([1]; 800 mg oral): 5.1 ± 5.3 ng/mL | Tmax, median (range) ([1]; 800 mg oral): 30.0 (3.0–72.0) h | AUClast [2, 3]: 60.6 ± 44.9 ng·h/mL | Cmax [2, 3]: 1.8 ± 1.1 ng/mL | Tmax, median (range) [2, 3]: 24.0 (24.0–36.0) h | AUClast [2, 4]: 154.5 ± 81.8 ng·h/mL | Cmax [2, 4]: 5.0 ± 2.5 ng/mL | Tmax, median (range) [2, 4]: 5.5 (0.3–24.0) h | AUClast [2, 5]: 54.1 ± 58.8 ng·h/mL | Cmax [2, 5]: 2.3 ± 3.4 ng/mL | Tmax, median (range) [2, 5]: 7.0 (4.0-48.0) h | AUClast [2, 6]: 170.9 ± 191.0 ng·h/mL | Cmax [2, 6]: 5.7 ± 6.1 ng/mL | Tmax, median (range) [2, 6]: 6.0 (0.3–24.0) h | AUClast [2, 7]: 133.1 ± 127.6 ng·h/mL | Cmax [2, 7]: 4.3 ± 3.6 ng/mL | Tmax, median (range) [2, 7]: 16.0 (3.0–36.0) h | AUClast [2, 8]: 463.1 ± 512.3 ng·h/mL | Cmax [2, 8]: 11.0 ± 10.2 ng/mL | Tmax, median (range) [2, 8]: 5.5 (0.5–8.0) h | concentration of metabolite relative to the parent drug ([2]; Day 1, 100–400 mg CK): 0.08–0.16%
